# In patent publication US8785460B2, “Tricyclic compounds and use thereof” (Takeda Pharmaceutical Company Limited, priority 2008, dated 2014):
# What was measured:
# human CRF1 receptor = molecular target: T1, human CRF1 receptor (Homo sapiens, UniProt P34998); assay: Measurement of CRF Binding Inhibitory Rate (receptor binding experiment with 125I-CRF); conditions: human CRF1 receptor expressing CHO cellular membrane fraction, 50 pM 125I-CRF, room temperature 1.5 hr, 0.05 nM to 10 μM of compound; read-out: IC50 values (CRF binding inhibition)
# T1 construct: expressed in transfected cells; host or cells: CHO cells (membrane fraction)
# T1 sequence (P34998 24-415): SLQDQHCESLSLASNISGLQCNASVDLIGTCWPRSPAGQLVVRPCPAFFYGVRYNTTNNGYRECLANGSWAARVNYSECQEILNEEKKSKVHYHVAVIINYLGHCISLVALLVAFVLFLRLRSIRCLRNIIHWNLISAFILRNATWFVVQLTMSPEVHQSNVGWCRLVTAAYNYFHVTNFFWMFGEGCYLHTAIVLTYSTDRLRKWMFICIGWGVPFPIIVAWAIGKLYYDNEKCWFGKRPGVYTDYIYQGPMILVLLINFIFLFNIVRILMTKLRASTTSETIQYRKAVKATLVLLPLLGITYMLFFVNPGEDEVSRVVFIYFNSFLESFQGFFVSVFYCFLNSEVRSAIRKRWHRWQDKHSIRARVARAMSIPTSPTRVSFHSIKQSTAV
Compound,IC50 (human CRF1 receptor),melting point
"CCC(OC(C)=O)c1ccc(Cl)c2nc3n(c12)CCCN3c1ccc(Cl)cc1Cl (racemic) [Example 238, 1-[9-Chloro-1-(2,4-dichlorophenyl)-1,2,3,4-tetrahydropyrimido[1,2-a]benzimidazol-6-yl]propyl acetate]",< 1000 nM,174 to 176 °C
"CCC(OC(C)=O)c1ccc(Cl)c2nc3n(c12)CCCN3c1ccc(OC)nc1C (racemic) [Example 265, 1-[9-Chloro-1-(6-methoxy-2-methylpyridin-3-yl)-1,2,3,4-tetrahydropyrimido[1,2-a]benzimidazol-6-yl]propyl acetate]",< 1000 nM,157 to 159 °C
"CCC(CC)c1ccc(Cl)c2nc3n(c12)CCN3c1ccc(Cl)cc1Cl [Example 3, 8-Chloro-1-(2,4-dichlorophenyl)-5-(1-ethylpropyl)-2,3-dihydro-1H-imidazo[1,2-a]benzimidazole]",< 1000 nM,171 to 173 °C
"CCC(CC)c1ccc(Cl)c2nc3n(c12)CC(=O)N3c1ccc(Cl)cc1Cl [Example 4, 8-Chloro-1-(2,4-dichlorophenyl)-5-(1-ethylpropyl)-1H-imidazo[1,2-a]benzimidazol-2(3H)-one]",< 1000 nM,200 to 202 °C
"CCC(CC)c1ccc(Cl)c2nc3n(c12)CCN3c1ccc(Cl)cc1Br [Example 5, 1-(2-Bromo-4-chlorophenyl)-8-chloro-5-(1-ethylpropyl)-2,3-dihydro-1H-imidazo[1,2-a]benzimidazole]",< 1000 nM,169 to 171 °C
"CCC(CC)c1ccc(Cl)c2nc3n(c12)C(Cl)(Cl)C(=O)N3c1c(C)cc(Cl)cc1OC [Example 11, 3,3,8-Trichloro-1-(4-chloro-2-methoxy-6-methylphenyl)-5-(1-ethylpropyl)-1H-imidazo[1,2-a]benzimidazol-2(3H)-one]",< 1000 nM,190 to 192 °C
"CCC(CC)c1ccc(Cl)c2nc3n(c12)CCN3c1ccc(Br)cc1Cl [Example 12, 1-(4-Bromo-2-chlorophenyl)-8-chloro-5-(1-ethylpropyl)-2,3-dihydro-1H-imidazo[1,2-a]benzimidazole]",< 1000 nM,165 to 168 °C
"CCC(CC)c1ccc(Cl)c2nc3n(c12)CCN3c1ccc(C(N)=O)cc1Cl [Example 15, 3-Chloro-4-[8-chloro-5-(1-ethylpropyl)-2,3-dihydro-1H-imidazo[1,2-a]benzimidazol-1-yl]benzamide]",< 1000 nM,225 to 229 °C
"CCC(CC)c1ccc(Cl)c2nc3n(c12)CCCCN3c1ccc(Cl)cc1Cl [Example 21, 10-Chloro-1-(2,4-dichlorophenyl)-7-(1-ethylpropyl)-2,3,4,5-tetrahydro-1H-[1,3]diazepino[1,2-a]benzimidazole]",< 1000 nM,160 to 162 °C
"CCC(CC)c1ccc(Cl)c2nc3n(c12)CCCC(=O)N3c1ccc(Cl)cc1Cl [Example 22, 10-Chloro-1-(2,4-dichlorophenyl)-7-(1-ethylpropyl)-4,5-dihydro-1H-[1,3]diazepino[1,2-a]benzimidazol-2(3H)-one]",< 1000 nM,135 to 137 °C
"CCC(CC)c1ccc(Cl)c2nc3n(c12)CCCCN3c1ccc(Cl)cc1 [Example 23, 10-Chloro-1-(4-chlorophenyl)-7-(1-ethylpropyl)-2,3,4,5-tetrahydro-1H-[1,3]diazepino[1,2-a]benzimidazole]",< 1000 nM,133 to 135 °C
"Cc1nc(N2CCCC2)ccc1N1CCCn2c1nc1c(Cl)ccc(C(OC(F)F)C(F)(F)F)c12 (stereo not drawn) [Example 294, 9-Chloro-6-[1-(difluoromethoxy)-2,2,2-trifluoroethyl]-1(2-methyl-6-pyrrolidin-1-ylpyridin-3-yl)-1,2,3,4-tetrahydropyrimido[1,2-a]benzimidazole]",–,233 to 236 °C
"Cc1nc(N2CCCCC2)ccc1N1CCCn2c1nc1c(Cl)ccc(C(OC(F)F)C(F)(F)F)c12 (stereo not drawn) [Example 295, 9-Chloro-6-[1-(difluoromethoxy)-2,2,2-trifluoroethyl]-1-(2-methyl-6-piperidin-1-ylpyridin-3-yl)-1,2,3,4-tetrahydropyrimido[1,2-a]benzimidazole]",–,164 to 167 °C
"Cc1nc(N2CCOCC2)ccc1N1CCCn2c1nc1c(Cl)ccc(C(OC(F)F)C(F)(F)F)c12 (stereo not drawn) [Example 296, 9-Chloro-6-[1-(difluoromethoxy)-2,2,2-trifluoroethyl]-1-(2-methyl-6-morpholin-4-ylpyridin-3-yl)-1,2,3,4-tetrahydropyrimido[1,2-a]benzimidazole]",–,191 to 193 °C
"Cc1nc(N2CCN(C)CC2)ccc1N1CCCn2c1nc1c(Cl)ccc(C(OC(F)F)C(F)(F)F)c12 (stereo not drawn) [Example 297, 9-Chloro-6-[1-(difluoromethoxy)-2,2,2-trifluoroethyl]-1-[2-methyl-6-(4-methylpiperazin-1-yl)pyridin-3-yl]-1,2,3,4-tetrahydropyrimido[1,2-a]benzimidazole]",–,193 to 195 °C
"Cc1nc(NC2CC2)ccc1N1CCCn2c1nc1c(Cl)ccc(C(OC(F)F)C(F)(F)F)c12 (stereo not drawn) [Example 299, 5-{9-Chloro-6-[1-(difluoromethoxy)-2,2,2-trifluoroethyl]-3,4-dihydropyrimido[1,2-a]benzimidazol-1(2H)-yl}-N-cyclopropyl-6-methylpyridin-2-amine]",–,168 to 170 °C
"OC(c1ccc(Cl)c2nc3n(c12)CCCN3c1ccc(Cl)cc1Cl)(C(F)(F)F)C(F)(F)F [Example 319, 2-[9-Chloro-1-(2,4-dichlorophenyl)-1,2,3,4-tetrahydropyrimido[1,2-a]benzimidazol-6-yl]-1,1,1,3,3,3-hexafluoropropan-2-ol]",–,237 to 240 °C
"CCC(O)c1ccc(Cl)c2nc3n(c12)CCCN3c1c(C)cc(Cl)cc1Cl (stereo not drawn) [Example 380, 1-[9-Chloro-1-(2,4-dichloro-6-methylphenyl)-1,2,3,4-tetrahydropyrimido[1,2-a]benzimidazol-6-yl]propan-1-ol]",–,210 to 211 °C
"O=S(=O)(CC(F)(F)F)NC(c1ccc(Cl)c2nc3n(c12)CCCN3c1c(Cl)cc(Cl)cc1Cl)C(F)(F)F (stereo not drawn) [Example 417, N-{1-[9-Chloro-1-(2,4,6-trichlorophenyl)-1,2,3,4-tetrahydropyrimido[1,2-a]benzimidazol-6-yl]-2,2,2-trifluoroethyl}-2,2,2-trifluoroethanesulfonamide]",–,237 to 239 °C
"OC(c1ccc(Cl)c2nc3n(c12)CCN3c1ccc(Cl)cc1Cl)(C1CC1)C1CC1 [Example 430, [8-Chloro-1-(2,4-dichlorophenyl)-2,3-dihydro-1H-imidazo[1,2-a]benzimidazol-5-yl](dicyclopropyl)methanol]",–,238 to 239 °C
"CCC(NC(=O)C1CC1)c1ccc(Cl)c2nc3n(c12)CCCN3c1ccc(Cl)cc1Cl (stereo not drawn) [Example 441, N-{1-[9-Chloro-1-(2,4-dichlorophenyl)-1,2,3,4-tetrahydropyrimido[1,2-a]benzimidazol-6-yl]propyl}cyclopropanecarboxamide]",–,251 to 253 °C
"CCS(=O)(=O)Cc1ccc(Cl)c2nc3n(c12)CCCN3c1ccc(Cl)cc1Cl [Example 461, 9-Chloro-1-(2,4-dichlorophenyl)-6-[(ethylsulfonyl)methyl]-1,2,3,4-tetrahydropyrimido[1,2-a]benzimidazole]",–,300 to 302 °C
"CCN(CC)c1cccc2nc3n(c12)CCOC3c1ccc(Cl)cc1Cl (stereo not drawn) [Example 501, 1-(2,4-Dichlorophenyl)-N,N-diethyl-3,4-dihydro-1H-[1,4]oxazino[4,3-a]benzimidazol-6-amine]",–,130 to 131 °C
"CCN(CC)c1cccc2nc3n(c12)CCCN(C)C3c1ccc(Cl)cc1Cl (stereo not drawn) [Example 510, 1-(2,4-Dichlorophenyl)-N,N-diethyl-2-methyl-2,3,4,5-tetrahydro-1H-[1,4]diazepino[1,2-a]benzimidazol-7-amine]",–,132 to 133 °C
"COc1nc(C)c(N2CCCn3c2nc2cccc(C(O)C(F)(F)F)c23)c(C)n1 (stereo not drawn) [Example 517, 2,2,2-Trifluoro-1-[1-(2-methoxy-4,6-dimethylpyrimidin-5-yl)-1,2,3,4-tetrahydropyrimido[1,2-a]benzimidazol-6-yl]ethanol]",–,296 to 299 °C
"COc1nc(C)c(N2CCCn3c2nc2c(Br)ccc(C(OC(F)F)C(F)(F)F)c23)c(C)n1 (stereo not drawn) [Example 519, 9-Bromo-6-[1-(difluoromethoxy)-2,2,2-trifluoroethyl]-1-(2-methoxy-4,6-dimethylpyrimidin-5-yl)-1,2,3,4-tetrahydropyrimido[1,2-a]benzimidazole]",–,211 to 213 °C
"COc1nc(C)c(N2CCCn3c2nc2c(C#N)ccc(C(OC(F)F)C(F)(F)F)c23)c(C)n1 (stereo not drawn) [Example 520, 6-[1-(Difluoromethoxy)-2,2,2-trifluoroethyl]-1-(2-methoxy-4,6-dimethylpyrimidin-5-yl)-1,2,3,4-tetrahydropyrimido[1,2-a]benzimidazole-9-carbonitrile]",–,250 to 252 °C
"COc1nc(C)c(N2CCCn3c2nc2c(OC)ccc(C(OC(F)F)C(F)(F)F)c23)c(C)n1 (stereo not drawn) [Example 526, 6-[1-(Difluoromethoxy)-2,2,2-trifluoroethyl]-9-methoxy-1-(2-methoxy-4,6-dimethylpyrimidin-5-yl)-1,2,3,4-tetrahydropyrimido[1,2-a]benzimidazole]",–,201 to 203 °C
